Assays:
[1] = DPPH radical scavenging activity
Protocol: The 2,2-diphenyl-1-picrylhydrazyl (DPPH) radical scavenging activity was evaluated as described (Gupta D et al., BMC Complement Altem Med, 2011; 11:13. doi: 10.1186/1472-6882-11-13) with modifications. In this assay, 0.2 mL of sample at different concentrations (1-1000 μg/mL) was added to 1.8 mL of DPPH solution (0.11 mM) in 80% ethanol. The mixture was then incubated for 30 minutes and at room temperature in the dark. The absorbance at 517 nm was then measured with ascorbic acid and butylhydroxytoluene (BHT) as reference antioxidants. A 0.2 mL of solvent extract dilution added to 1.8 mL of DPPH solution (0.11 mM) in 80% ethanol serve as the control. Two independent experiments were performed in triplicate. The percentage inhibition was calculated relative to the control using the equation, inhibition of DPPH radical (%)=(1−(Abssample/Abscontrol))×100.

[2] = test system: STAT-3 phosphorylation; assay: Interleukin-6 induced STAT-3 phosphorylation; format: cell-based; conditions: IL-6 induced STAT-3 phosphorylation; 100 uM

## O=C1O[C@H]([C@@H](O)CO)C(O)=C1O [Ascorbic acid, ascorbic acid]
[1]; 300 μM
  DPPH radical scavenging activity, %: 37.60 ± 0.47%

## O=c1c(-c2ccc(O)cc2)coc2cc(O)cc(O)c12 [Genestain]
[2]
  % Inhibition: 96.25%

## O=C(NC(Cc1cc(=O)[nH]c2ccccc12)C(=O)O)c1ccc(Cl)cc1 (stereo not drawn) [Rebamipde, rebamipide]
[1]; 100 μg/mL
  DPPH radical scavenging activity, %: 0.93 ± 0.83%

Source: patent US20190224261A1, “LICORICE EXTRACT COMPOSITIONS AND METHOD OF USE” (Adbiotech, Co. Ltd, priority 2018, published 2019)
